In US8129425B2, “Small organic molecule regulators of cell proliferation” (Curis, Inc., priority 2000, dated 2012):

System: hedgehog-responsive Gli-Luc reporter-construct
Assay: Gli-Luc hedgehog pathway reporter assay in [10T1/2(s12)] cells
Format: cell-based, murine
Settings: Table 1
Method: To measure the hedgehog agonist activity of compounds, we used [10T1/2(s12)] cells containing the hedgehog-responsive Gli-Luc reporter-construct. In each MTP (MicroTiter Plate; 96-well plate), 10,000-20,000 cells were plated per well, in full media (10% FBS). After about 24-48 hr, plates were switched to low-serum media (=0.5%. FBS). Subsequently, a test compound was added at 1-5 μM in the presence or absence of octyl-hedgehog (see below). After another 24 hr, the media from the MTPs was discarded and replaced with luciferase assay-mix, containing lysis-buffer with luciferase substrate. The plates were incubated at RT for about 15-30 min and read in a luminometer.
Plates were incubated for 48 hr before switching to low-serum. Compounds were screened at 1-2 μM in the presence of Hh protein (0.01 μg/ml; EC30=about 30% of max-induced activity).
Plates were incubated for 24 hr before switching to low-serum. Compounds were screened at 5 μM without adding Hh protein.
From Screen A, we identified hits identified in FIGS. 32 and 33. The 1,4-diaminocyclohexane subunit of the compounds of FIG. 32 which include this moiety have the two amino substituents disposed in a trans-relationship, e.g., both substituents equatorial on the cyclohexane subunit. These hits were confirmed in Screen B. The data shown in FIGS. 34a and 34b essentially involved dosing the two compounds in both assays (Gli-Luc & SV-Luc).
The data from the Gli-Luc assay is converted to percent activity where full activity with Hh protein is set at 100% (FIG. 35; Table 1). […] Furthermore, the compounds show a more striking induction in the presence of hedgehog (EC50=0.2-0.3 μM, ECmax=70-90% of max induced activity with Hh protein), indicating a synergy between the compounds and Hh protein, consistent with the compounds serving as agonists for the hedgehog pathway.

EC50 [µM]	SMILES
< 1	CN[C@H]1CC[C@H](N(Cc2cccc(-c3ccc(S(=O)(=O)NC(C)=O)s3)c2)C(=O)c2sc3ccccc3c2Cl)CC1 [O′′]
< 1	COc1ccc(-c2cc(CN(C(=O)c3sc4ccccc4c3Cl)C3CCC(N)CC3)ccc2OC)cc1 (stereo not drawn) [K]
< 0.05	CN[C@H]1CC[C@H](N(Cc2ccc(OC)c(-c3ccc(C#N)cc3)c2)C(=O)c2sc3cccc(F)c3c2Cl)CC1 [Y′′]
< 1	CN[C@H]1CC[C@H](N(Cc2cccc(-c3nccnc3C)c2)C(=O)c2sc3ccccc3c2Cl)CC1 [U′]
< 1	CNC1CCC(N(Cc2cccc(-c3ccncc3)c2)C(=O)c2sc3ccccc3c2Cl)CC1 (stereo not drawn) [M]
< 1	CN[C@H]1CC[C@H](N(Cc2cccc(-c3ccc(S(=O)(=O)N(C)C)s3)c2)C(=O)c2sc3ccccc3c2Cl)CC1 [M′′]
< 10	COc1ccc(CN(C(=O)c2sc3ccccc3c2Cl)C2CCC(N)CC2)cc1-c1cccc(C#N)c1 (stereo not drawn) [X]
< 10	CN[C@H]1CC[C@H](N(Cc2ccc(OC)c(-c3ccc(C#N)cc3)c2)C(=O)c2sc3ccccc3c2C)CC1 [K′]
> 10	COc1ccc(CN(C(=O)c2sc3ccccc3c2Cl)[C@H]2CC[C@H](N)CC2)cc1Br [H′]
< 1	CN[C@H]1CC[C@H](N(Cc2ccccn2)C(=O)c2sc3c(F)ccc(F)c3c2Cl)CC1 [U′′′]
< 1	CN[C@H]1CC[C@H](N(Cc2ccnc(C(F)(F)F)c2)C(=O)c2sc3ccccc3c2Cl)CC1 [R′′′]
< 10	CN[C@H]1CC[C@H](N(Cc2cncc(-c3ccc(C#N)cc3)c2)C(=O)c2sc3ccccc3c2Cl)CC1 [S′′]
< 10	CN[C@H]1CC[C@H](N(Cc2ccc3c(c2)CCO3)C(=O)c2sc3ccccc3c2Cl)CC1 [E′′]
< 1	CN[C@H]1CC[C@H](N(Cc2cccc(-c3ccc(S(=O)(=O)NC(C)(C)C)s3)c2)C(=O)c2sc3ccccc3c2Cl)CC1 [L′′]
< 1	CN[C@H]1CC[C@H](N(Cc2cccc(-c3ccc(S(=O)(=O)n4c(C)ccc4C)s3)c2)C(=O)c2sc3ccccc3c2Cl)CC1 [R′′]
< 1	CN[C@H]1CC[C@H](N(Cc2ccnc(-c3cccnc3)c2)C(=O)c2sc3ccccc3c2Cl)CC1 [S′′′]
< 0.005	CN[C@H]1CC[C@H](N(Cc2cc(-c3ccncc3)cs2)C(=O)c2sc3c(F)ccc(F)c3c2Cl)CC1 [W′′]
< 1	CN[C@H]1CC[C@H](N(Cc2cccc(-c3cccnc3)n2)C(=O)c2sc3ccccc3c2Cl)CC1 [N′′]
< 1	COc1ccc(CN(C(=O)c2sc3ccccc3c2Cl)C2CCC(N)CC2)cc1-c1ccc(C(C)=O)cc1 (stereo not drawn) [H]

EC50 [µM]	SMILES
< 1	CN[C@H]1CC[C@H](N(Cc2ccc(OC)c(-c3ccc(C#N)cc3)c2)C(=O)c2sc3cccc(C)c3c2Cl)CC1 [O′′′]
< 1	CN[C@H]1CC[C@H](N(Cc2ccnc(-c3ccc(N)nc3)c2)C(=O)c2sc3ccccc3c2Cl)CC1 [Q′′′]
< 10	CN[C@H]1CC[C@H](N(Cc2scc(-c3cccnc3)c2C)C(=O)c2sc3ccccc3c2Cl)CC1 [A′′]
< 0.05	CN[C@H]1CC[C@H](N(Cc2ccc(OC)c(-c3ccc(C#N)cc3)c2)C(=O)c2sc3ccc(F)c(F)c3c2Cl)CC1 [D′′′]
< 1	CNC1CCC(N(Cc2ccc(C)c(-c3ccc(C#N)cc3)c2)C(=O)c2sc3ccccc3c2Cl)CC1 (stereo not drawn) [Compound S]
< 10	COc1ccc(CN(C(=O)c2sc3ccccc3c2Cl)[C@H]2CC[C@H](N)CC2)cc1-c1ccsc1 [C′]
< 0.5	CN[C@H]1CC[C@H](N(Cc2cc(-c3ccc(S(N)(=O)=O)s3)cs2)C(=O)c2sc3ccccc3c2Cl)CC1 [I′′]
< 1	CN[C@H]1CC[C@H](N(Cc2cccc(-c3ccc(C#N)cc3)c2)C(=O)c2sc3ccccc3c2Cl)CC1 [I′]
< 10	CN[C@H]1CC[C@H](N(Cc2cccc(-c3nccs3)c2)C(=O)c2sc3ccccc3c2Cl)CC1 [B′′]
< 10	Cc1ccc(-c2cccc(CN(C(=O)c3sc4ccccc4c3Cl)C3CCC(N)CC3)c2)cn1 (stereo not drawn) [T]
< 1	NC1CCC(N(Cc2cccc(-c3cccnc3)c2)C(=O)c2sc3ccccc3c2Cl)CC1 (stereo not drawn) [Compound C]
< 1	CNC1CCC(N(Cc2cccc(-c3cnccn3)c2)C(=O)c2sc3ccccc3c2Cl)CC1 (stereo not drawn) [P]
< 5	CN[C@H]1CC[C@H](N(Cc2cncc(-c3cccnc3)c2)C(=O)c2sc3ccccc3c2Cl)CC1 [G′′′]
< 10	CN[C@H]1CC[C@H](N(Cc2cccc(-c3ccc[nH]3)c2)C(=O)c2sc3ccccc3c2Cl)CC1 [D′′]
< 10	COc1ccc(CN(C(=O)c2sc3ccccc3c2Cl)[C@H]2CC[C@H](N(C)C)CC2)cc1-c1ccc(C#N)cc1 [G′]
< 0.1	CN[C@H]1CC[C@H](N(Cc2cc(-c3ccc(C#N)cc3)cs2)C(=O)c2sc3ccccc3c2Cl)CC1 [G′′]
< 10	NC1CCC(N(Cc2ccc(-c3nccs3)cc2)C(=O)c2sc3ccccc3c2Cl)CC1 (stereo not drawn) [F]
< 1	CNC1CCC(N(Cc2cccc(-c3ccc(C)nc3)c2)C(=O)c2sc3ccccc3c2Cl)CC1 (stereo not drawn) [N]
> 10	COc1ccc(CN(C(=O)c2sc3ccccc3c2Cl)C2CCC(N)CC2)cc1-c1ncccn1 (stereo not drawn) [I]

EC50 [µM]	SMILES
< 10	COc1ccc(CN(C(=O)c2sc3ccccc3c2Cl)[C@H]2CC[C@H](N)CC2)cc1-c1ccccc1 [F′]
< 5	CN[C@H]1CC[C@H](N(Cc2ccc(OC)c(-c3ccc(C#N)cc3)c2)C(=O)c2sc3sccc3c2Cl)CC1 [L′′′]
< 10	CN[C@H]1CC[C@H](N(Cc2cccc(N3CCC4(CC3)OCCO4)c2)C(=O)c2sc3ccccc3c2Cl)CC1 [Y′]
< 1	CN[C@H]1CC[C@H](N(Cc2cccc(-c3ccc(OC)nc3)c2)C(=O)c2sc3ccccc3c2Cl)CC1 [V′]
< 0.1	CN[C@H]1CC[C@H](N(Cc2cccc(-c3ccc(N(C)C)nc3)c2)C(=O)c2sc3ccccc3c2Cl)CC1 [H′′]
< 10	COc1ccc(CN(C(=O)c2sc3ccccc3c2Cl)C2CCC(O)CC2)cc1-c1ccc(C#N)cc1 (stereo not drawn) [A′]
< 10	CN[C@H]1CC[C@H](N(Cc2cccc(Nc3ccccn3)c2)C(=O)c2sc3ccccc3c2Cl)CC1 [X′]
< 10	CNC1CCC(N(Cc2ccc(OC)c(I)c2)C(=O)c2sc3ccccc3c2Cl)CC1 (stereo not drawn) [U]
< 10	COc1ccc(CN(C(=O)c2sc3ccccc3c2Cl)C2CCC(N)CC2)cc1-c1cccnc1 (stereo not drawn) [Y]
< 0.05	CN[C@H]1CC[C@H](N(Cc2ccc(OC)c(-c3ccc(C#N)cc3)c2)C(=O)c2sc3c(F)cc(F)cc3c2Cl)CC1 [F′′′]
< 0.05	CN[C@H]1CC[C@H](N(Cc2cccc(-c3ccncc3)c2)C(=O)c2sc3ccccc3c2Cl)CC1 [H′′′]
< 10	CN[C@H]1CC[C@H](N(Cc2cc(-c3ccco3)cs2)C(=O)c2sc3ccccc3c2Cl)CC1 [P′′]
< 10	COc1ccc(CN(C(=O)c2sc3ccccc3c2Cl)[C@H]2CC[C@H](N)CC2)cc1-c1ccc(F)cc1 [E′]
< 1	CNC1CCC(N(Cc2cccc(-c3ccccn3)c2)C(=O)c2sc3ccccc3c2Cl)CC1 (stereo not drawn) [Q]
< 10	COc1ccc(CN(C(=O)c2sc3ccccc3c2Cl)C2CCC(N)CC2)cc1-c1nccs1 (stereo not drawn) [Z]
< 0.005	CN[C@H]1CC[C@H](N(Cc2cc(-c3cccnc3)cs2)C(=O)c2sc3c(F)ccc(F)c3c2Cl)CC1 [V′′]
< 10	CN[C@H]1CC[C@H](N(Cc2cccc(Oc3ccccc3)c2)C(=O)c2sc3ccccc3c2Cl)CC1 [C′′]
< 10	CNC1CCC(N(Cc2cccc(I)c2)C(=O)c2sc3ccccc3c2Cl)CC1 (stereo not drawn) [W]
< 0.05	CN[C@H]1CC[C@H](N(Cc2cc(-c3ccncc3)cs2)C(=O)c2sc3cccc(F)c3c2Cl)CC1 [A′′′]
